In PMC9014859 (Journal of Medicinal Chemistry, 2022):
Entries after “also recorded” stand apart in the source; their conditions may differ. Each block holds one compound with its values, some of them ahead of it.

Tests used:
[1] = biological target: T1, Human FL NPR-C (27–541)-10His-Flag (Homo sapiens, UniProt P17342); test: Surface plasmon resonance; settings: SPR, affinity model, 1:1 binding; for Kd: KD (μM)
T1 sequence (P17342 27-541): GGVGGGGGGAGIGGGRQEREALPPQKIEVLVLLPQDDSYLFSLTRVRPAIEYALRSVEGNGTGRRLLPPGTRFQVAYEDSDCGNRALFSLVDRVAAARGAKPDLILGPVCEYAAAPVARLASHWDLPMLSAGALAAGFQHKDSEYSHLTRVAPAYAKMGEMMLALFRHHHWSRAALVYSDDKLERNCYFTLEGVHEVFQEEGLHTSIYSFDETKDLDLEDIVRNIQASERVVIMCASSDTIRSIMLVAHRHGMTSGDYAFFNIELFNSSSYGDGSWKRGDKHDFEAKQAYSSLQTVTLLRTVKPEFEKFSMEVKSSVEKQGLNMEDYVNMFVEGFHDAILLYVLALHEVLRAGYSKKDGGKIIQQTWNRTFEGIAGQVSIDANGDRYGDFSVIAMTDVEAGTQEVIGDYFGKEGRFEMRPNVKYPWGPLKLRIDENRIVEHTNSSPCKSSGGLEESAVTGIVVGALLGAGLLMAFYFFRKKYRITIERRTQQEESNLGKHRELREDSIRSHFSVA

[2] = biological target: T2, Human NPR-C in HeLa cells (Homo sapiens, UniProt P17342); test: Inhibition of forskolin-induced cAMP production in HeLa cells; settings: 100 μM compound, forskolin 10 μM
T2 sequence (P17342 27-541): T1 sequence (P17342 27-541)

[3] = biological target: T3, NPR-C extracellular domains (Homo sapiens, UniProt P17342); test: Fluorescence polarization; type: binding; settings: competition against fluorescent P19 probe
T3 sequence (P17342 27-481): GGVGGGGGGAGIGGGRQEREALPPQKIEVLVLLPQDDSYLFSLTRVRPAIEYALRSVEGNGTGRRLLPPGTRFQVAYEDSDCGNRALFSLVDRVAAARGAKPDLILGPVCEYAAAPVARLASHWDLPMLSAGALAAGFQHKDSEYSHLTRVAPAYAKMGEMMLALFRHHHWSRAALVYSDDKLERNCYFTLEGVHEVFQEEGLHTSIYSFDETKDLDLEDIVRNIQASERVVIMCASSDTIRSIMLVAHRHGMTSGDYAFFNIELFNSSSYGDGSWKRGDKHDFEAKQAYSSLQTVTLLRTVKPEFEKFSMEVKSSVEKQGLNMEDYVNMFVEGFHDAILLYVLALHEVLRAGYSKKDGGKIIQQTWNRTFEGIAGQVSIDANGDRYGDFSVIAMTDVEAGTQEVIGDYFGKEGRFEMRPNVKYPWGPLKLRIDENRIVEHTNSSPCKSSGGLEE

[4] = in vitro; settings: plasma
[5] = tested on: CYP1A2, 2B6, 2C8, 2C9, 2C19, 2D6, 3A4 (value spans the isoforms); test: in vitro; settings: human
[6] = physchem; settings: solubility (mg/mL), PBS, 5% DMSO, room temperature, 3 h
[7] = pH 7.4
[8] = tested on: CYP isoforms 1A2, 2B6, 2C8, 2C9, 2C19, 2D6, 3A4; test: in vitro; settings: human
[9] = tested on: Rat small mesenteric artery
[10] = tested on: Mouse small mesenteric artery (NPR-C KO)
[11] = in vitro; settings: male, Sprague-Dawley, rat, hepatocytes
[12] = in vitro; settings: PAMPA, pH 7.4, PAMPA Papp (cm/S × 10^–6)

FP EC50 (μM) [3]: Inactive
Structure (SMILES): CC(=O)Nc1ccc(Nc2ncnc(N[C@@H](CC(C)C)C(=O)OC(C)(C)C)n2)cc1 [Compound 26, tert-Butyl (4-((4-Acetamidophenyl)amino)-1,3,5-triazin-2-yl)-L-leucinate]
inhibition of cAMP formation [2]: inhibition trend that did not reach statistical significance

fraction unbound [4]: 0.15 | EC50 [5]: > 50 µM | solubility [6]: > 70 µg/mL
Structure (SMILES): CC(=O)Nc1ccc(Nc2ncnc(N[C@@H](CC(C)C)C(=O)O)n2)cc1 [Compound 27, (4-((4-Acetamidophenyl)amino)-1,3,5-triazin-2-yl)-L-leucine]

Kd [1]: 144 ± 7.7 µM
Structure (SMILES): CON(C)C(=O)[C@H](CC(C)C)Nc1ncnc(Nc2ccc(NC(C)=O)cc2)n1 [Compound 32, (S)-2-((4-((4-Acetamidophenyl)amino)-1,3,5-triazin-2-yl)amino)-N-methoxy-N,4-dimethylpentanamide]

FP EC50 (μM) [3]: Inactive | Kd [1]: 29.6 ± 4.5 µM
Structure (SMILES): CC(=O)Nc1ccc(Nc2ncnc(N[C@H](CC(=O)OC(C)(C)C)Cc3ccccc3)n2)cc1 [Compound 44, tert-Butyl (S)-3-((4-((4-Acetamidophenyl)amino)-1,3,5-triazin-2-yl)amino)-4-phenylbutanoate]

fraction unbound ([4]; Sprague-Dawley, human and rat): < 0.005 | EC50 [8]: 4.96 to 37.8 µM | solubility [6]: > 70 µg/mL | Rat small mesenteric artery EC50+NPR-C inhibitor (M372049) ± SEM (μM) ([9]; vasorelaxation, with M372049 (10 μM)): maintained their activity | Mouse small mesenteric artery NPR-C KO EC50 ± SEM (μM) ([10]; vasorelaxation, NPR-C knockout): maintained their activity | hepatocyte CLint [11]: < 6.4 µL/min/1e6 cells | half-life ([11]; hepatocyte (rat) T1/2 (min), 1 μM test compound): > 3.33 h | Papp [12]: < 1 ×10⁻⁶ cm/s | Papp ([12]; pH 7.4, 5 h, room temperature): < 0.023 ×10⁻⁶ cm/s
Structure (SMILES): COC(=O)[C@H](CC(C)C)Nc1nc(Cl)nc(N[C@H]2CC[C@H](Nc3nc(Cl)nc(N[C@@H](CC(C)C)C(=O)OC)n3)CC2)n1 [Compound 17, Dimethyl 2,2′-(((((1r,4r)-Cyclohexane-1,4-diyl)bis(azanediyl))bis(6-chloro-1,3,5-triazine-4,2-diyl))bis(azanediyl))bis(4-methylpentanoate)]
inhibition of cAMP formation [2]: inhibition trend that did not reach statistical significance

EC50 [5]: > 50 µM | FP EC50 (μM) [3]: Low % binding | reduction in potency (EC50 value) when treated with M372049 ([9]; rat SMA): 10 fold | reduction in potency (EC50 value) when treated with osteocrin ([9]; rat SMA): 2.5 fold
Structure (SMILES): CC(=O)Nc1ccc(Nc2ncnc(NCCC(=O)OC(C)(C)C)n2)cc1 [Compound 1, tert-Butyl 3-((4-((4-Acetamidophenyl)amino)-1,3,5-triazin-2-yl)amino)propanoate]
reduction in potency in NPR-C KO tissue ([10]; mouse SMA, KO vs wild-type): 6.4 fold

The next lines start with the compound.

Structure (SMILES): CC(=O)Nc1ccc(Nc2ncnc(N[C@@H](C)C(=O)OC(C)(C)C)n2)cc1 [Compound 39, tert-Butyl (4-((4-Acetamidophenyl)amino)-1,3,5-triazin-2-yl)-L-alaninate]
KD (μM) [1]: did not meet the minimum binding threshold

Structure (SMILES): CC(=O)Nc1ccc(Nc2ncnc(NC(C)(C)C(=O)OC(C)(C)C)n2)cc1 [Compound 38, tert-Butyl 2-((4-((4-Acetamidophenyl)amino)-1,3,5-triazin-2-yl)amino)-2-methylpropanoate]
KD (μM) [1]: did not meet the minimum binding threshold

Structure (SMILES): CC(=O)Nc1ccc(Nc2ncnc(NCC(=O)OC(C)(C)C)n2)cc1 [Compound 36, tert-Butyl (4-((4-Acetamidophenyl)amino)-1,3,5-triazin-2-yl)glycinate]
PAMPA Papp (cm/S × 10^–6) [7]: < 1

Structure (SMILES): CC(=O)Nc1ccc(Nc2ncnc(N[C@@H](Cc3ccc(O)cc3)C(=O)OC(C)(C)C)n2)cc1 [Compound 42, tert-Butyl (4-((4-Acetamidophenyl)amino)-1,3,5-triazin-2-yl)-L-tyrosinate]
KD (μM) [1]: did not meet the minimum binding threshold

Structure (SMILES): CC(=O)Nc1ccc(Nc2ncnc(N[C@H](CC(C)C)C(=O)OC(C)(C)C)n2)cc1 [Compound 34, tert-Butyl (4-((4-Acetamidophenyl)amino)-1,3,5-triazin-2-yl)-D-leucinate]
KD (μM) [1]: failing to pass the preliminary binding screen

Structure (SMILES): CC(C)C[C@H](Nc1nc(Cl)nc(Nc2ccc(NC(=O)c3ccccc3)cc2)n1)C(=O)OC(C)(C)C [Compound 22, tert-Butyl (4-((4-Benzamidophenyl)amino)-6-chloro-1,3,5-triazin-2-yl)-L-leucinate]
KD (μM) [1]: poor binding profile; also recorded: Rmax>>theoretical
